The values that follow are results of earlier work, collected in patent US20250041383A1, “MODIFIED CAVEOLIN-1 PEPTIDES FOR THE TREATMENT OF POST-ACUTE COVID-19” (priority 2021, published 2025).

Ends that are not written are not given here.

This series relates to lung. The conditions noted are these: treatment with the CSP 20-mer; literature.

As to “DGIWKASFTTFTVTKYWFYR (not fully specified) [CSP 20-mer, the full-length CSD of caveolin-1, amino acids 82-101]”, the collagen deposition entry is listed as “reduced”, the “expression of profibrogenic signaling molecules” value is reported as “down-regulation”, the “lung aSMA” value is listed as “reduced” and the lung epithelial apoptosis entry is reported as “reduced”.
